Test results published in the NIST ThermoML archive (doi:10.1016/j.jct.2011.08.028).
± gives the expanded uncertainty stated by the source.

How the values were obtained:
[1] = refractive index (Na D-line) (dimensionless); conditions: 101.33 kPa, Liquid, Standard Abbe refractometry
[2] = Liquid; for speed of sound: Sing-around technique in a fixed-path interferometer; for mass density: Vibrating tube method; for viscosity: Capillary tube (Ostwald / Ubbelohde) method
[3] = xn = mol fraction of the nth substance listed; conditions: 298.15 K, 101 kPa, Liquid; for speed of sound: Sing-around technique in a fixed-path interferometer; for mass density: Vibrating tube method
[4] = refractive index (Na D-line) (dimensionless); xn = mol fraction of the nth substance listed; conditions: 298.15 K, 101 kPa, Liquid, Standard Abbe refractometry

CC(C)O [propan-2-ol]
Conditions | refractive index
[1], 298.15 K | 1.375 ± 0.00068

[2], 298.15 K, 101 kPa
Conditions | mass density [kg/m3] | speed of sound [m/s]
– | 780.98 ± 0.13 | 1139 ± 2

CCCn1cc[n+](C)c1.O=S(=O)([N-]S(=O)(=O)C(F)(F)F)C(F)(F)F + CCCO
Conditions | mass density, [3] [kg/m3] | refractive index, [4] | speed of sound, [3] [m/s]
x2 = 0 | 1474.44 ± 0.65 | 1.42525 ± 0.0007 | 1232 ± 2
x2 = 0.0787 | 1457.82 ± 0.57 | 1.42424 ± 0.0007 | 1228 ± 2
x2 = 0.1022 | 1452.69 ± 0.55 | 1.42391 ± 0.0007 | 1227 ± 2
x2 = 0.247 | 1417.04 ± 0.44 | 1.42164 ± 0.00069 | 1220 ± 2
x2 = 0.39 | 1372.22 ± 0.36 | 1.41887 ± 0.00069 | 1212 ± 2
x2 = 0.442 | 1352.74 ± 0.35 | 1.41758 ± 0.00069 | 1208 ± 2
x2 = 0.4877 | 1333.71 ± 0.35 | 1.41661 ± 0.00068 | 1205 ± 2
x2 = 0.569 | 1294.62 ± 0.32 | 1.41422 ± 0.00068 | 1198 ± 2
x2 = 0.6455 | 1250.12 ± 0.29 | 1.41148 ± 0.00068 | 1191 ± 2
x2 = 0.703 | 1209.58 ± 0.27 | 1.40897 ± 0.00068 | 1187 ± 2
x2 = 0.75 | 1170.92 ± 0.26 | 1.40667 ± 0.00068 | 1183 ± 2
x2 = 0.8048 | 1117.65 ± 0.23 | 1.40345 ± 0.00068 | 1179 ± 2
x2 = 0.8492 | 1066.16 ± 0.27 | 1.40025 ± 0.00068 | 1178 ± 2

CCCn1cc[n+](C)c1.O=S(=O)([N-]S(=O)(=O)C(F)(F)F)C(F)(F)F + CC(C)O
Conditions | mass density, [3] [kg/m3] | refractive index, [4] | speed of sound, [3] [m/s]
x2 = 0 | 1474.44 ± 0.65 | 1.42525 ± 0.0007 | 1232 ± 2
x2 = 0.0493 | 1463.7 ± 0.6 | 1.42452 ± 0.0007 | 1228 ± 2
x2 = 0.0921 | 1454.1 ± 0.57 | 1.42385 ± 0.0007 | 1226 ± 2
x2 = 0.291 | 1401.23 ± 0.43 | 1.42016 ± 0.00069 | 1212 ± 2
x2 = 0.4093 | 1360.46 ± 0.37 | 1.41732 ± 0.00069 | 1202 ± 2
x2 = 0.5071 | 1318.46 ± 0.37 | 1.41439 ± 0.00069 | 1191 ± 2
x2 = 0.6113 | 1262.2 ± 0.32 | 1.41043 ± 0.00068 | 1178 ± 2
x2 = 0.6964 | 1203.91 ± 0.3 | 1.40624 ± 0.00068 | 1166 ± 2
x2 = 0.803 | 1106.76 ± 0.24 | 1.39926 ± 0.00068 | 1148 ± 2
x2 = 0.9009 | 979.02 ± 0.16 | 1.39013 ± 0.00068 | 1135 ± 2
x2 = 0.9503 | 892.06 ± 0.14 | 1.38375 ± 0.00068 | 1134 ± 2

CCCO [propan-1-ol]
Conditions | refractive index
[1], 298.15 K | 1.38307 ± 0.00068

[2], 298.15 K, 101 kPa
Conditions | mass density [kg/m3] | speed of sound [m/s]
– | 800.09 ± 0.12 | 1207 ± 2

CO [methanol] + CCCn1cc[n+](C)c1.O=S(=O)([N-]S(=O)(=O)C(F)(F)F)C(F)(F)F
x1 = 1
Conditions | mass density [kg/m3] | refractive index | speed of sound [m/s]
[3] | 786.59 ± 0.12 | – | 1103 ± 2
[4] | – | 1.32648 ± 0.00068 | –

CO [methanol]
Conditions | refractive index
[1], 298.15 K | 1.32648 ± 0.00068

[2], 298.15 K, 101 kPa
Conditions | mass density [kg/m3] | speed of sound [m/s]
– | 786.59 ± 0.12 | 1103 ± 2

CCCO [propan-1-ol] + CCCn1cc[n+](C)c1.O=S(=O)([N-]S(=O)(=O)C(F)(F)F)C(F)(F)F
x1 = 1
Conditions | mass density [kg/m3] | refractive index | speed of sound [m/s]
[3] | 800.09 ± 0.12 | – | 1207 ± 2
[4] | – | 1.38307 ± 0.00068 | –

CCO [ethanol]
Conditions | refractive index
[1], 298.15 K | 1.35929 ± 0.00068

[2], 298.15 K, 101 kPa
Conditions | mass density [kg/m3] | speed of sound [m/s]
– | 785.33 ± 0.12 | 1144 ± 2

CCCn1cc[n+](C)c1.O=S(=O)([N-]S(=O)(=O)C(F)(F)F)C(F)(F)F + CCO
Conditions | mass density, [3] [kg/m3] | refractive index, [4] | speed of sound, [3] [m/s]
x2 = 0 | 1474.44 ± 0.65 | 1.42525 ± 0.0007 | 1232 ± 2
x2 = 0.053 | 1465.87 ± 0.6 | 1.42443 ± 0.0007 | 1230 ± 2
x2 = 0.099 | 1458.19 ± 0.56 | 1.42378 ± 0.0007 | 1227 ± 2
x2 = 0.1914 | 1441.04 ± 0.49 | 1.42214 ± 0.0007 | 1223 ± 2
x2 = 0.2948 | 1418.06 ± 0.42 | 1.42008 ± 0.00069 | 1216 ± 2
x2 = 0.3909 | 1391.82 ± 0.37 | 1.41788 ± 0.00069 | 1209 ± 2
x2 = 0.4992 | 1354.59 ± 0.34 | 1.41421 ± 0.00068 | 1200 ± 2
x2 = 0.5912 | 1313.64 ± 0.32 | 1.41045 ± 0.00068 | 1190 ± 2
x2 = 0.6978 | 1249.77 ± 0.28 | 1.4045 ± 0.00068 | 1176 ± 2
x2 = 0.7938 | 1167.28 ± 0.26 | 1.39689 ± 0.00068 | 1162 ± 2
x2 = 0.895 | 1033.88 ± 0.18 | 1.38426 ± 0.00068 | 1146 ± 2
x2 = 0.9431 | 940.65 ± 0.16 | 1.37524 ± 0.00068 | 1142 ± 2

CC(C)O [propan-2-ol] + CCCn1cc[n+](C)c1.O=S(=O)([N-]S(=O)(=O)C(F)(F)F)C(F)(F)F
x1 = 1
Conditions | mass density [kg/m3] | refractive index | speed of sound [m/s]
[3] | 780.98 ± 0.13 | – | 1139 ± 2
[4] | – | 1.375 ± 0.00068 | –

CCCn1cc[n+](C)c1.O=S(=O)([N-]S(=O)(=O)C(F)(F)F)C(F)(F)F
[1]
Conditions | refractive index
293.15 K | 1.42669 ± 0.00037
298.15 K | 1.42525 ± 0.00037
303.15 K | 1.42378 ± 0.00037
308.15 K | 1.42224 ± 0.00037
313.15 K | 1.42076 ± 0.00037
318.15 K | 1.41926 ± 0.00037
323.15 K | 1.41776 ± 0.00037
328.15 K | 1.41625 ± 0.00037
333.15 K | 1.41479 ± 0.00037
338.15 K | 1.41334 ± 0.00037
343.15 K | 1.41185 ± 0.00037

[2], 101.33 kPa
Conditions | mass density [kg/m3] | speed of sound [m/s] | viscosity [mPa·s]
293.15 K | 1479.39 ± 0.65 | 1243 ± 2 | –
298.15 K | 1474.44 ± 0.65 | 1232 ± 2 | 43.7 ± 0.6
303.15 K | 1469.5 ± 0.65 | 1221 ± 2 | 35.68 ± 0.54
308.15 K | 1464.58 ± 0.64 | 1210 ± 2 | 29.51 ± 0.49
313.15 K | 1459.67 ± 0.64 | 1199 ± 2 | 24.77 ± 0.46
318.15 K | 1454.78 ± 0.63 | 1188 ± 2 | 21.01 ± 0.44
323.15 K | 1449.91 ± 0.63 | 1178 ± 2 | 18.04 ± 0.43
328.15 K | 1445.06 ± 0.62 | 1168 ± 2 | 15.59 ± 0.42
333.15 K | 1440.23 ± 0.62 | 1157 ± 2 | 13.63 ± 0.42
338.15 K | 1435.42 ± 0.61 | 1147 ± 2 | 12.02 ± 0.41
343.15 K | 1430.62 ± 0.61 | 1137 ± 2 | 10.66 ± 0.41

CCO [ethanol] + CCCn1cc[n+](C)c1.O=S(=O)([N-]S(=O)(=O)C(F)(F)F)C(F)(F)F
x1 = 1
Conditions | mass density [kg/m3] | refractive index | speed of sound [m/s]
[3] | 785.33 ± 0.12 | – | 1144 ± 2
[4] | – | 1.35929 ± 0.00068 | –

CCCn1cc[n+](C)c1.O=S(=O)([N-]S(=O)(=O)C(F)(F)F)C(F)(F)F + CO
Conditions | mass density, [3] [kg/m3] | refractive index, [4] | speed of sound, [3] [m/s]
x2 = 0 | 1474.44 ± 0.65 | 1.42525 ± 0.0007 | 1232 ± 2
x2 = 0.099 | 1463.12 ± 0.56 | 1.4237 ± 0.0007 | 1228 ± 2
x2 = 0.2012 | 1449.69 ± 0.49 | 1.42185 ± 0.00069 | 1223 ± 2
x2 = 0.2973 | 1434.29 ± 0.42 | 1.41964 ± 0.00069 | 1218 ± 2
x2 = 0.4068 | 1411.9 ± 0.36 | 1.41652 ± 0.00069 | 1211 ± 2
x2 = 0.5067 | 1385.1 ± 0.33 | 1.41274 ± 0.00068 | 1203 ± 2
x2 = 0.601 | 1351.31 ± 0.3 | 1.40806 ± 0.00068 | 1192 ± 2
x2 = 0.6936 | 1305.17 ± 0.28 | 1.40193 ± 0.00068 | 1179 ± 2
x2 = 0.7948 | 1228.8 ± 0.26 | 1.39113 ± 0.00068 | 1159 ± 2
x2 = 0.9009 | 1085.51 ± 0.18 | 1.37097 ± 0.00068 | 1129 ± 2
x2 = 0.9499 | 972.1 ± 0.17 | 1.35417 ± 0.00068 | 1115 ± 2
